Measurements: PubChem BioAssay AID330 (DTP/NCI, 2004)
“And” between values parts separate entries of the source, which are not always exact repeats. Equal entries are not always repeated. Inconclusive results and toxic doses are left out.

Tested on: P388 leukemia ip, CD2F1 mice, survival T/C
Assay: NCI In Vivo Anticancer Drug Screen. Data for tumor model P388 Leukemia (intraperitoneal) in CD2F1 (CDF1) mice
Conditions: endpoint: median survival time, higher = longer survival
Outline: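 Mice carrying the transplanted tumor received test compound or vehicle. Survival was recorded in each group, and the value is the treated-group measurement divided by that of the vehicle-treated control group.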

[1] = dose: 50.0 mg/kg/injection, schedule: Q01DX005 (ip), vehicle: saline with Tween-80
[2] = dose: 100.0 mg/kg/injection, schedule: Q01DX005 (ip), vehicle: saline with Tween-80
[3] = dose: 200.0 mg/kg/injection, schedule: Q01DX005 (ip), vehicle: saline with Tween-80
[4] = dose: 25.0 mg/kg/injection, schedule: Q01DX005 (ip), vehicle: Klucel (hydroxypropylcellulose) (HPC)
[5] = dose: 50.0 mg/kg/injection, schedule: Q01DX005 (ip), vehicle: Klucel (hydroxypropylcellulose) (HPC)
[6] = dose: 100.0 mg/kg/injection, schedule: Q01DX005 (ip), vehicle: Klucel (hydroxypropylcellulose) (HPC)
[7] = dose: 200.0 mg/kg/injection, schedule: Q01DX005 (ip), vehicle: Klucel (hydroxypropylcellulose) (HPC)
[8] = dose: 60.0 mg/kg/injection, schedule: Q01DX005 (ip), vehicle: saline with Tween-80
[9] = dose: 120.0 mg/kg/injection, schedule: Q01DX005 (ip), vehicle: saline with Tween-80
[10] = dose: 240.0 mg/kg/injection, schedule: Q01DX005 (ip), vehicle: saline with Tween-80
[11] = dose: 12.5 mg/kg/injection, schedule: Q01DX009 (ip), vehicle: saline
[12] = dose: 25.0 mg/kg/injection, schedule: Q01DX009 (ip), vehicle: saline
[13] = dose: 6.0 mg/kg/injection, schedule: Q01DX009 (ip), vehicle: saline
[14] = dose: 50.0 mg/kg/injection, schedule: Q01DX009 (ip), vehicle: saline with Tween-80
[15] = dose: 100.0 mg/kg/injection, schedule: Q01DX009 (ip), vehicle: saline with Tween-80
[16] = dose: 200.0 mg/kg/injection, schedule: Q01DX009 (ip), vehicle: saline with Tween-80

In the case of `CCOC(=O)Cc1ccccn1`, the T/C (dose: 100.0 mg/kg/injection, schedule: Q01DX009 (ip), vehicle: Klucel (hydroxypropylcellulose) (HPC)) is reported as 109 % of control, the T/C (dose: 200.0 mg/kg/injection, schedule: Q01DX009 (ip), vehicle: Klucel (hydroxypropylcellulose) (HPC)) is reported as 110 % of control and the T/C (dose: 400.0 mg/kg/injection, schedule: Q01DX009 (ip), vehicle: Klucel (hydroxypropylcellulose) (HPC)) is reported as 119 % of control.
In the case of `CCc1nc(N)nc(N)c1-c1ccc(N=[N+]=[N-])c(Cl)c1`, the T/C (dose: 100.0 mg/kg/injection, schedule: Q04DX002 (ip), vehicle: saline with Tween-80) is reported as 160 % of control, the T/C (dose: 200.0 mg/kg/injection, schedule: Q04DX002 (ip), vehicle: saline with Tween-80) is reported as 116 % of control and the T/C (dose: 400.0 mg/kg/injection, schedule: Q04DX002 (ip), vehicle: saline with Tween-80) is reported as 90 % of control.
`COc1ccc2sc3c(C)ccc(NCC4CCCN5CCCCC45)c3c(=O)c2c1` (stereo not drawn) was tested, and the T/C [1] was 95 % of control, the T/C [2] was 90 % of control and the T/C [3] was 90 % of control.
`O=C1NC(=O)C([N+](=O)[O-])C(=O)N1` was tested, and the T/C (dose: 25.0 mg/kg/injection, schedule: Q01DX001 (ip), vehicle: saline) was 100 % of control and the T/C (dose: 50.0 mg/kg/injection, schedule: Q01DX001 (ip), vehicle: saline) was 108 % of control.
In the case of `NC(=S)c1ncn(C2OC(COC=O)C(OC=O)C2OC=O)c1NC=O` (stereo not drawn), the T/C [4] is reported as 110 % of control, the T/C [5] is reported as 108 % of control and the T/C [6] is reported as 113 % of control. For the same molecule, the T/C [7] was 120 % of control, the T/C [3] was 114 % of control and the T/C (dose: 400.0 mg/kg/injection, schedule: Q01DX005 (ip), vehicle: Klucel (hydroxypropylcellulose) (HPC)) was 100 % of control. The T/C (dose: 400.0 mg/kg/injection, schedule: Q01DX005 (ip), vehicle: saline with Tween-80) was 97 % of control.
With `O=C1C=CC2=Cc3ccccc3CN12` the T/C [8] was 100 % of control, the T/C [9] was 100 % of control and the T/C [10] was 100 % of control.
For `COc1cc(OC)c(C(c2cc3c(cc2O)OCO3)N2CCOCC2)c(OC)c1` (stereo not drawn), the T/C [8] was 118 % of control and the T/C [9] was 120 % of control.
In the case of `C/C(N)=C\C#N`, the T/C (dose: 25.0 mg/kg/injection, schedule: Q04DX003 (ip), vehicle: saline with Tween-80) is reported as 100 % of control, the T/C (dose: 50.0 mg/kg/injection, schedule: Q04DX003 (ip), vehicle: saline with Tween-80) is reported as 101 % of control and the T/C (dose: 100.0 mg/kg/injection, schedule: Q04DX003 (ip), vehicle: saline with Tween-80) is reported as 98 % of control and 97 % of control.
For `CC[PH+](CC)CC[S-].CC[PH+](CC)CC[S-].[Au+].[Au+]`, the T/C (dose: 2.5 mg/kg/injection, schedule: Q01DX009 (ip), vehicle: Klucel (hydroxypropylcellulose) (HPC)) was 109 % of control, the T/C (dose: 5.0 mg/kg/injection, schedule: Q01DX009 (ip), vehicle: Klucel (hydroxypropylcellulose) (HPC)) was 114 % of control and 115 % of control and the T/C (dose: 20.0 mg/kg/injection, schedule: Q01DX009 (ip), vehicle: Klucel (hydroxypropylcellulose) (HPC)) was 153 % of control. The T/C (dose: 40.0 mg/kg/injection, schedule: Q01DX009 (ip), vehicle: Klucel (hydroxypropylcellulose) (HPC)) was 87 % of control.
In the case of `S=c1nn[nH]c2[nH]ncc12`, the T/C (dose: 100.0 mg/kg/injection, schedule: Q01DX001 (ip), vehicle: saline with Tween-80) is reported as 94 % of control, the T/C (dose: 200.0 mg/kg/injection, schedule: Q01DX001 (ip), vehicle: saline with Tween-80) is reported as 102 % of control and the T/C (dose: 400.0 mg/kg/injection, schedule: Q01DX001 (ip), vehicle: saline with Tween-80) is reported as 108 % of control.
For `C=CCOc1cc2c(cc1Cc1cc(OC)c(OC)c(OC)c1)OCO2`, the T/C (dose: 60.0 mg/kg/injection, schedule: Q01DX005 (ip), vehicle: saline) was 100 % of control and the T/C (dose: 120.0 mg/kg/injection, schedule: Q01DX005 (ip), vehicle: saline) was 99 % of control.
`CCOC(=O)Cc1csc(/C=C/c2ccc(OC)c(OC)c2)n1` was tested, and the T/C [8] was 96 % of control, the T/C [9] was 96 % of control and the T/C [10] was 90 % of control.
With `CCCCNC(=O)CC(=O)NCCCC` the T/C [4] was 99 % of control, the T/C [5] was 100 % of control and the T/C [6] was 99 % of control. The T/C [7] was 100 % of control.
For `CCOC(O)C(F)(F)F` (stereo not drawn), the T/C [11] was 105 % of control, the T/C [12] was 105 % of control and the T/C (dose: 50.0 mg/kg/injection, schedule: Q01DX009 (ip), vehicle: saline) was 100 % of control. For the same molecule, the T/C (dose: 100.0 mg/kg/injection, schedule: Q04DX003 (ip), vehicle: saline) was 100 % of control and the T/C (dose: 200.0 mg/kg/injection, schedule: Q04DX003 (ip), vehicle: saline) was 109 % of control.
With `CCCCCc1cc(/C=C2/N=C(c3ccc[nH]3)C=C2OC)[nH]c1C` the T/C (dose: 1.5 mg/kg/injection, schedule: Q01DX009 (ip), vehicle: saline) was 114 % of control, the T/C (dose: 3.0 mg/kg/injection, schedule: Q01DX009 (ip), vehicle: saline) was 120 % of control and 123 % of control and the T/C [13] was 107 % of control.
For `C[Si]1(C)CC[Si](C)(C)S1`, the T/C [1] was 103 % of control and the T/C [2] was 108 % of control.
For `CC(=O)NC1=C(N2CC2C)C(=O)C(NC(C)=O)=C(N2CC2C)C1=O` (stereo not drawn), the T/C (dose: 1.78 mg/kg/injection, schedule: Q01DX009 (ip), vehicle: saline) was 122 % of control, the T/C (dose: 2.66 mg/kg/injection, schedule: Q01DX009 (ip), vehicle: saline) was 160 % of control and the T/C (dose: 4.0 mg/kg/injection, schedule: Q01DX009 (ip), vehicle: saline) was 163 % of control. The T/C [13] was 210 % of control.
In the case of `C=C(C)CCN1C(=O)NC(C)(C)C1O` (stereo not drawn), the T/C (dose: 50.0 mg/kg/injection, schedule: Q01DX005 (ip), vehicle: saline) is reported as 100 % of control, the T/C (dose: 100.0 mg/kg/injection, schedule: Q01DX005 (ip), vehicle: saline) is reported as 107 % of control and the T/C (dose: 200.0 mg/kg/injection, schedule: Q01DX005 (ip), vehicle: saline) is reported as 101 % of control.
With `CC([OH2+])CNCCN.CC([OH2+])CNCCN.[Ni+2].[O-][Cl+3]([O-])([O-])[O-]` (stereo not drawn) the T/C [11] was 111 % of control and the T/C [12] was 100 % of control.
With `COC(=O)/C=C/C=C/c1ccco1` the T/C [14] was 99 % of control, the T/C [15] was 87 % of control and the T/C [16] was 89 % of control.
`CCC1(c2ccccc2)SC(=O)NC1=O` (stereo not drawn) was tested, and the T/C [14] was 91 % of control, the T/C [15] was 91 % of control and the T/C [16] was 98 % of control.
`CCCCOP(=O)(NNP(=O)(OCCCC)OCCCC)OCCCC` was tested, and the T/C (dose: 25.0 mg/kg/injection, schedule: Q01DX009 (ip), vehicle: saline with Tween-80) was 102 % of control, the T/C [14] was 102 % of control and the T/C [15] was 100 % of control. For the same molecule, the T/C [16] was 101 % of control.
For `O=C1CS/C(=N/N=C/c2nc3ccccc3c(=O)n2-c2ccc(Cl)cc2)N1c1ccccc1`, the T/C [3] was 88 % of control.
With `S=C(SCc1c(Cl)cccc1Cl)N1CCSCC1` the T/C [8] was 102 % of control, the T/C [9] was 93 % of control and the T/C [10] was 96 % of control.
In the case of `CC1[C@@]2(O[C@@H]3C=C4C5CCC6Cc7nc8c(nc7C[C@@]6(C)C5C[C@H](O)[C@@]4(C)[C@]13O)CC1CCc3c(cc4c5c3C(O)C[C@H]5[C@@H](C)C3(O4)OC(C)(C)CC3O)[C@]1(C)C8)O[C@@](C)(CO)C[C@@H]2O` (stereo partly drawn), the T/C (dose: 12.5 micrograms/kg/injection, schedule: Q01DX009 (ip), vehicle: saline + alcohol) is reported as 109 % of control, the T/C (dose: 25.0 micrograms/kg/injection, schedule: Q01DX009 (ip), vehicle: saline + alcohol) is reported as 107 % of control and the T/C (dose: 100.0 micrograms/kg/injection, schedule: Q01DX009 (ip), vehicle: saline + alcohol) is reported as 98 % of control.
For `CCCCCC(Cl)(CC)CCCCC`, the T/C (dose: 100.0 mg/kg/injection, schedule: Q01DX009 (ip), vehicle: saline) was 110 % of control, the T/C (dose: 200.0 mg/kg/injection, schedule: Q01DX009 (ip), vehicle: saline) was 108 % of control and the T/C (dose: 400.0 mg/kg/injection, schedule: Q01DX009 (ip), vehicle: saline) was 109 % of control.
In the case of `COc1cc2c(cc1OC(C)=O)C(=O)CCC=C2`, the T/C (dose: 33.0 mg/kg/injection, schedule: Q04DX003 (ip), vehicle: saline) is reported as 100 % of control, the T/C (dose: 50.0 mg/kg/injection, schedule: Q04DX003 (ip), vehicle: saline) is reported as 104 % of control and the T/C (dose: 75.0 mg/kg/injection, schedule: Q04DX003 (ip), vehicle: saline) is reported as 112 % of control. The T/C (dose: 400.0 mg/kg/injection, schedule: Q04DX003 (ip), vehicle: saline) was 120 % of control.
For `Clc1ccc(-c2c(-c3ccccc3)c3n(c2Sc2ccccc2)CCC3)cc1`, the T/C (dose: 60.0 mg/kg/injection, schedule: Q01DX005 (ip), vehicle: Klucel (hydroxypropylcellulose) (HPC)) was 92 % of control, the T/C (dose: 120.0 mg/kg/injection, schedule: Q01DX005 (ip), vehicle: Klucel (hydroxypropylcellulose) (HPC)) was 89 % of control and the T/C (dose: 240.0 mg/kg/injection, schedule: Q01DX005 (ip), vehicle: Klucel (hydroxypropylcellulose) (HPC)) was 86 % of control.
